The values that follow come from patent US20240150335A1, “FUSED RING DERIVATIVES CONTAINING 1,4-OXAZEPANE” (MEDSHINE DISCOVERY INC., priority 2021, published 2024).

Broadly, the IC50 is the concentration at which inhibition is half-maximal.

Assay [1] addresses Recombinant human cathepsin C/DPP1. Nature of the assay: Inhibition effect test of DPP1 enzyme activity. Format: biochemical. The note with it: recombinant human cathepsin C/DPP1, Gly-Arg-AMC substrate 12.5 μM, 25° C. 60 minutes; read-out: IC50, inhibitory activity on DPP1 enzyme. Here is the method:
Experimental Example 1: Inhibition Effect Test of DPP1 Enzyme Activity
Recombinant human cathepsin C/DPP1 was purchased from R&D Systems;
Recombinant human cathepsin L (rhCathepsin L) was purchased from R&D Systems;
Gly-Arg-AMC (hydrochloride) was purchased from CAYMAN CHEMICAL COMPANY.
1× activation buffer: 5 mM DTT 0.01% (V/V) Triton X-100 (preparation for current use);
1× assay buffer: 50 mM NaCl 5 mM DTT 0.01% (V/V) Triton X-100 (preparation for current use);
1× activation buffer was used to dilute recombinant human cathepsin C/DPP1 enzyme and recombinant human cathepsin L (rhCathepsin L) enzyme to concentrations of 2 ng/μL and 0.4 ng/μL, respectively; equal volume of two working solutions of enzyme was taken, mixed well and incubated at 25° C. for 60 minutes;
the compounds to be tested were 5-fold diluted with a multi-channel pipette to the 8th concentration, i.e., diluted from 1 mM to 12.8 nM. Then 1× experimental buffer was used to dilute each compound to be tested by gradient into a 4% DMSO working solution. The working solution was added to corresponding wells for 5 μL/well, and duplicate experiment was set. The mixture was centrifuged at 1000 rpm for 1 minute;
5 μL/well of the enzyme mixture after incubation was taken and added to the white microwell plate. At this time, the amount of DPP1 enzyme in each well was 5 ng; 1× experimental buffer in 5 μL/well was added to the blank control well;
Gly-Arg-AMC (hydrochloride) was diluted to 25 μM with 1× assay buffer. The diluted mixture in 10 μL/well was added to a white microwell plate. The substrate concentration was 12.5 μM at this time, and the microplate was centrifuged in a centrifuge at 1000 rpm for 1 minute. […] After centrifugation, the microplate was covered with membrane and incubated at 25° C. for 60 minutes;
after incubation, fluorescence detection was performed using a multi-label analyzer with an excitation wavelength of 360 nm and an emission wavelength of 460 nm.
Using the equation (Sample−Min)/(Max−Min)×100% to convert the raw data into enzyme activity, the IC50 value might be obtained by curve fitting with four parameters (obtained by “log (inhibitor) vs. response—Variable slope” mode in GraphPad Prism).
Max: Contains recombinant human cathepsin C/DPP1, recombinant human cathepsin L (rhCathepsin L), and Gly-Arg-AMC (hydrochloride)
Min: No recombinant human cathepsin C/DPP1 and recombinant human cathepsin L (rhCathepsin L)

The target in the next assay is DPP1 of U937 cells (Homo sapiens (Human), UniProt P53634). Nature of the assay: Activity test of inhibiting DPP1 in U937 cells. The note with it: Gly-Phe-AFC probe, read-out: IC50, inhibitory activity on DPP1 of U937 cells. The format is cell-based. On the procedure: Experimental Example 2: Activity Test of Inhibiting DPP1 in U937 Cells
Experimental Materials: • 1) Experimental reagents and consumables
The cell plate was placed in a carbon dioxide incubator for 1 day; • (3) after incubation for 1 hour, 100 μM Gly-Phe-AFC probe solution was added thereto, that is, 60 mM Gly-Phe-AFC probe stock solution was diluted with culture medium to 500 μM working solution; the working solution in 10 μL per well was transferred into the cell plate, and the cell plate was incubated in a carbon dioxide incubator for 1 hour;
3) the plate was read, and the data were analyzed: • (1) plate reading: after the cell incubation was completed, the cell plate was taken out, and the plate was read on Victor Nivo.
Using the equation (Sample−Min)/(Max−Min)×100% to convert the raw data into inhibition rate, the IC50 value might be obtained by curve fitting with four parameters (obtained by “log (inhibitor) vs. response—Variable slope” mode in GraphPad Prism).

Sequence of DPP1 of U937 cells (P53634 25-134): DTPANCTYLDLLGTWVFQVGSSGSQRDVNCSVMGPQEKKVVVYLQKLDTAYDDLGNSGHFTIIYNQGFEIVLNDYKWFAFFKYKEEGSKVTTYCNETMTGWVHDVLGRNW
Sequence of DPP1 of U937 cells (P53634 231-394): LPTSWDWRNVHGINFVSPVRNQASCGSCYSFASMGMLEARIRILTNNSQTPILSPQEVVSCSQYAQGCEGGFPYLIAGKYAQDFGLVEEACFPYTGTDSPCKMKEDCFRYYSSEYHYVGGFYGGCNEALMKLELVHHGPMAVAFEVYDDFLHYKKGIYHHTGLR
Sequence of DPP1 of U937 cells (P53634 395-463): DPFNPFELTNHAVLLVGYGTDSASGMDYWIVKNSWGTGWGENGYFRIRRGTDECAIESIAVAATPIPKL

In the case of `Cc1cc(-c2ccc3cnn(C)c3c2)ccc1C[C@H](C#N)NC(=O)[C@@H]1CNCCCO1` [Compound 17], the IC50 in assay [1] is 22.5 nM.

In the case of `N#C[C@@H](Cc1ccc(-c2ccc3cnn(C4CCNCC4)c3c2)cc1F)NC(=O)[C@@H]1CNCCCO1` [Compound 22], the IC50 in assay [1] is 0.76 nM.

For `CN1Cc2cc(-c3ccc(C[C@@H](C#N)NC(=O)[C@@H]4CNCCCO4)cc3)ccc2C1=O` [Compound 5], the IC50 at DPP1 of U937 cells was 9.32 nM; in assay [1], 28.3 nM.

With `Cn1nc(F)c2ccc(-c3ccc(C[C@H](C#N)NC(=O)[C@@H]4CNCCCO4)c(F)c3)cc21` [Compound 18], the 50% inhibitory concentration (IC50) was determined as 5.43 nM on DPP1 of U937 cells and 1.23 nM in assay [1].

In the case of `CC(C)n1ncc2ccc(-c3ccc(C[C@@H](C#N)NC(=O)[C@@H]4CNCCCO4)cc3)cc21` [Compound 9], the half-maximal inhibitory concentration (IC50) in assay [1] worked out at 14 nM.

`Cn1nnc2ccc(-c3ccc(C[C@@H](C#N)NC(=O)[C@@H]4CNCCCO4)c(F)c3)cc21` [Compound 7]: the IC50 on DPP1 of U937 cells turned out to be 2.49 nM; in assay [1], 2.52 nM.

In the case of `N#C[C@@H](Cc1ccc(-c2cnc3cc[nH]c3c2)cc1F)NC(=O)[C@@H]1CNCCCO1` [Compound 21], the IC50 at DPP1 of U937 cells was found to be 9.27 nM; in assay [1] it was 17.3 nM.

As to `N#C[C@@H](Cc1ccc(-c2ccc3nccn3c2)cc1F)NC(=O)[C@@H]1CNCCCO1` [Compound 14], the results for the concentration for half-maximal inhibition (IC50) (at DPP1 of U937 cells; in assay [1]) were 2.79 nM and 28.1 nM, respectively.

On to `Cn1nnc2ccc(-c3ccc(C[C@@H](C#N)NC(=O)[C@@H]4CNCCCO4)cc3)cc21` [Compound 4], for which the IC50 at DPP1 of U937 cells turned out to be 1.32 nM; in assay [1], 10.8 nM.

In the case of `N#C[C@H](Cc1ccc(-c2ccc3cnn(C4CCOCC4)c3c2)cc1F)NC(=O)[C@@H]1CNCCCO1` [Compound 12], the 50% inhibitory concentration (IC50) stood at 1.81 nM on DPP1 of U937 cells and 2.38 nM in assay [1].

Take `Cn1ncc2ccc(-c3ccc(C[C@@H](C#N)NC(=O)[C@@H]4CNCCCO4)cc3)cc21` [Compound 2]: the IC50 turned out to be 8.95 nM on DPP1 of U937 cells and 26.8 nM in assay [1].

With `CC(C)n1ncc2ccc(-c3ccc(C[C@@H](C#N)NC(=O)[C@@H]4CNCCCO4)c(F)c3)cc21` [Compound 10], the IC50 is 8.53 nM at DPP1 of U937 cells and 4.39 nM in assay [1].

In the case of `Cn1ncc2ccc(-c3ccc(C[C@H](C#N)NC(=O)[C@@H]4CNCCCO4)c(Cl)c3)cc21` [Compound 16], the IC50 in assay [1] stood at 9.18 nM.

As to `CN1CCOc2ccc(-c3ccc(C[C@H](C#N)NC(=O)[C@@H]4CNCCCO4)c(F)c3)cc21` [Compound 15], in assay [1], the IC50 was 3.65 nM.

Regarding `CN1CCC(n2ncc3ccc(-c4ccc(C[C@H](C#N)NC(=O)[C@@H]5CNCCCO5)c(F)c4)cc32)CC1` [Compound 24], the half-inhibitory concentration (IC50) at DPP1 of U937 cells worked out at 3.12 nM; in assay [1], 1 nM.

With `N#C[C@@H](Cc1ccc(-c2cc(F)c3cn[nH]c3c2)cc1F)NC(=O)[C@@H]1CNCCCO1` [Compound 19], the IC50 was 8.7 nM on DPP1 of U937 cells and 4.55 nM in assay [1].

For the compound `N#C[C@H](Cc1ccc(-c2ccc3nccn3c2)cc1F)NC(=O)[C@@H]1CNCCCO1` [Compound 13], the IC50 was found to be 6.33 nM at DPP1 of U937 cells and 20.4 nM in assay [1].
